Patent publication US9062066B2, “Anti-inflammatory compound having inhibitory activity against multiple tyrosine kinases and pharmaceutical composition containing same” (KOREA INSTITUTE OF SCIENCE AND TECHNOLOGY, priority 2010, dated 2015)
Like-named read-outs stand apart in the source and are kept apart here.

Experiments:
c-Src tyrosine kinase = c-Src tyrosine kinase (Homo sapiens (Human), UniProt P12931); assay: in vitro c-Src tyrosine kinase inhibition (32P-ATP, poly(D4Y)n substrate); assay type: biochemical; settings: 1 uM compound; read-out: % inhibition against c-Src
Hck tyrosine kinase = Hck tyrosine kinase (Homo sapiens (Human), UniProt P08631); assay: in vitro Hck tyrosine kinase inhibition; assay type: biochemical; settings: 1 uM compound; read-out: % inhibition against Hck
Fgr tyrosine kinase = Fgr tyrosine kinase (Homo sapiens (Human), UniProt P09769); assay: in vitro Fgr tyrosine kinase inhibition; assay type: biochemical; settings: 1 uM compound; read-out: % inhibition against Fgr
Lyn tyrosine kinase = Lyn tyrosine kinase (Homo sapiens (Human), UniProt P07948); assay: in vitro Lyn tyrosine kinase inhibition; assay type: biochemical; settings: 1 uM compound; read-out: % inhibition against Lyn
DDR1 tyrosine kinase = DDR1 tyrosine kinase (Homo sapiens (Human), UniProt Q08345); assay: in vitro DDR1 tyrosine kinase inhibition (GST-fused kinase domain); assay type: biochemical; settings: 1 uM compound; read-out: % inhibition against DDR1
DDR2 tyrosine kinase = DDR2 tyrosine kinase (Homo sapiens (Human), UniProt Q16832); assay: in vitro DDR2 tyrosine kinase inhibition (GST-fused kinase domain); assay type: biochemical; settings: 1 uM compound; read-out: % inhibition against DDR2
[1] = test system: TNF-α synthesis in J744A.1 macrophages; assay: inhibition of TNF-α synthesis in LPS-activated macrophages (ELISA); assay type: cell-based; settings: Macrophage, read-out: Inhibition (%) of TNF-α synthesis
[2] = test system: NO synthesis in J744A.1 macrophage; assay: inhibition of nitric oxide (NO) synthesis in LPS-activated macrophages (Griess reagent); assay type: cell-based; settings: read-out: Inhibition (%) of NO synthesis
[3] = test system: α-smooth muscle actin protein expression in skin fibroblast cells; assay: inhibition of α-smooth muscle actin expression in fibroblast activated by type I collagen and TGF-β1 (western blotting); assay type: cell-based, Balb/C mouse; settings: Mus musculus, 0.5 uM compound, 10 ng/ml TGF-β1, 48 hours, type I collagen, read-out: Inhibition (%) of α-smooth muscle actin increase
From the text: When fibroblast, […] alpha smooth muscle cells are converted to myofibroblast by activation, one of characteristic features is that α-smooth muscle actin protein expression is increased. Also myoblast cells with the increased α-smooth muscle actin expression have a character of an increased migration. These phenomena appear together with the activation of inflammatory cells and the activated myoblast-type cells are known to contribute directly to the pathology of inflammatory diseases. […] In this experiment, the expression level of alpha smooth muscle actin can be quantificated by measuring the density of α-smooth muscle actin protein band with densitometer after developing the X-ray film of chemiluminescence signal in western blotting experiment.

mouse skin fibroblast = assay: inhibition of migration of activated fibroblast (scratch wound); assay type: cell-based; settings: 0.5 uM compound, 10 ng/ml TGF-β1, 24 hours, read-out: Inhibition (%) of migration of activated fibroblast
Description: The straight line of regular width was made using a micro pipette tip for a scratch wound on the mono-layer culture, and then the culture was exchanged to DMEM medium and incubated with 10 ng/ml of TGF-β1 in cell culture incubator of 37° C. for 24 hours. The cultured cells were fixed using formalin and stained with crystal violet. Photo-pictures were taken at 100× magnification in five location selected randomly in the scratched wound site of each stained culture dish and then the number of the cells moved into the scratched wound area was counted and averaged.

[4] = test system: oxazolone-induced skin inflammation of Balb/C mouse ears; assay: mouse skin inflammatory model induced by oxazolone (ear thickness); assay type: in vivo; settings: 20 ul of 0.1% compound topical on ear, 36 hours after oxazolone
Description: The compounds of the present invention were evaluated for their effective anti-inflammatory activity using a skin inflammatory animal model of 8 weeks old Balb/C mouse ears induced by oxazolone. […] After 4 days, the thickness of ear was measured using a caliper for the thickness value of ear before the induction of inflammation. […] After 36 hours, the thickness of ear was measured for the increased thickness induced by inflammation. […] The average value was obtained in each group (n=4).

[5] = 10 μM compound, 100 ng/ml LPS, 6 hours

Sequence of Hck tyrosine kinase (P08631 whole entry): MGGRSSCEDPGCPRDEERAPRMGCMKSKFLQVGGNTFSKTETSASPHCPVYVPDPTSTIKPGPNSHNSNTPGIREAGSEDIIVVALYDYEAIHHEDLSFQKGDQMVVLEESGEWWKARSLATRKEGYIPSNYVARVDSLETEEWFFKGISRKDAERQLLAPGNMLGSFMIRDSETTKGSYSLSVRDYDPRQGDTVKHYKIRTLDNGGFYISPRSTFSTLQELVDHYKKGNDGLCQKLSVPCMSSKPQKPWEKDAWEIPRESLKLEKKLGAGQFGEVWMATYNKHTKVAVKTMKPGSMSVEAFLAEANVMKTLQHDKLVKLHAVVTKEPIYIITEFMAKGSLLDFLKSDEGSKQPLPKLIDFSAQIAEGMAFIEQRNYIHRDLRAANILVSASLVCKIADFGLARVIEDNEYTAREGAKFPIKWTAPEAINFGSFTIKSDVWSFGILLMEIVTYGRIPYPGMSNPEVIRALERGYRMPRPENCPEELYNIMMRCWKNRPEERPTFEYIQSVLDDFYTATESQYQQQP
Sequence of DDR1 tyrosine kinase (Q08345 610-905): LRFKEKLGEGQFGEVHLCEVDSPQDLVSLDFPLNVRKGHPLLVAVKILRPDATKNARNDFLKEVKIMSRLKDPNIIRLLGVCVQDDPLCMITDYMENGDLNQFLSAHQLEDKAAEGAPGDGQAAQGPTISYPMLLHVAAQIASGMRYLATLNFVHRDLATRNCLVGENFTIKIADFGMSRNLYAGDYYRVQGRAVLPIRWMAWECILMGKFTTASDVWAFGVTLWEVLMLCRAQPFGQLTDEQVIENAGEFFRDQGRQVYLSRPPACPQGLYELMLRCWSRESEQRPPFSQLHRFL
Sequence of DDR2 tyrosine kinase (Q16832 563-849): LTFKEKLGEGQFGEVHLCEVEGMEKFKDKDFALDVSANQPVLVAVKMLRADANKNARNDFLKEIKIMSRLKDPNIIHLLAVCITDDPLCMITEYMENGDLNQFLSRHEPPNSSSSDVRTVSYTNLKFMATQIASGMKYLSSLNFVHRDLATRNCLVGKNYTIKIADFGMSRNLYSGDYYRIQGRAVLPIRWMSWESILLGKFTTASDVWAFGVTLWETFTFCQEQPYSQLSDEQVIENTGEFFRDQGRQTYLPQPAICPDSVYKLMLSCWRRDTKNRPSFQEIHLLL
Sequence of Fgr tyrosine kinase (P09769 whole entry): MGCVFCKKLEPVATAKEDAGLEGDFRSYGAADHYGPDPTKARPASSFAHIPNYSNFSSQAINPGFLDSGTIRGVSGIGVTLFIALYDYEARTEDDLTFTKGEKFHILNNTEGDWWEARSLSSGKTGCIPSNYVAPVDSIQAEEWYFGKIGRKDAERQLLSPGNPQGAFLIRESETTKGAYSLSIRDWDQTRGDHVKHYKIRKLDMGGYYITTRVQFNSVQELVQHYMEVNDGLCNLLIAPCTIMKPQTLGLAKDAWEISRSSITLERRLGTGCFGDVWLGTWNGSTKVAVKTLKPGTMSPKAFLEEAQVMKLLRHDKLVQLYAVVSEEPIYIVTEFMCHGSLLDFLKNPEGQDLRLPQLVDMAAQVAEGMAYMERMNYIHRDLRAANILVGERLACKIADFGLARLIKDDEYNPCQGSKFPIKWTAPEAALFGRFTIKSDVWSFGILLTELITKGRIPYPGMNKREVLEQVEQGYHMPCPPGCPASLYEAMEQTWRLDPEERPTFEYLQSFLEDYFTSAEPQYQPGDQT
Sequence of Lyn tyrosine kinase (P07948 whole entry, the tested form may be a part): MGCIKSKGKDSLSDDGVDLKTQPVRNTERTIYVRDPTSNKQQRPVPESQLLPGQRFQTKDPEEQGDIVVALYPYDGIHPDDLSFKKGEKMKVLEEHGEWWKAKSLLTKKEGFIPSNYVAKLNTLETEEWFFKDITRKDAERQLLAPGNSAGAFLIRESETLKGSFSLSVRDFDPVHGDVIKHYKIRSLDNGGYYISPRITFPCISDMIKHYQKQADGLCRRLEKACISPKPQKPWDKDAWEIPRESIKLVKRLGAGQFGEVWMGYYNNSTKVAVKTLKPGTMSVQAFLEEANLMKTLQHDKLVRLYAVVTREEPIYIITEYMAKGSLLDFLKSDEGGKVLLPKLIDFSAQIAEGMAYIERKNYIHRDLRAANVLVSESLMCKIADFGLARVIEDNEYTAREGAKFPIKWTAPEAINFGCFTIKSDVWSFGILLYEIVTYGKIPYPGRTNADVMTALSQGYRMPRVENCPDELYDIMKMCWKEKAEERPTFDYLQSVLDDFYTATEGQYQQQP
Sequence of c-Src tyrosine kinase (P12931 whole entry, looked up): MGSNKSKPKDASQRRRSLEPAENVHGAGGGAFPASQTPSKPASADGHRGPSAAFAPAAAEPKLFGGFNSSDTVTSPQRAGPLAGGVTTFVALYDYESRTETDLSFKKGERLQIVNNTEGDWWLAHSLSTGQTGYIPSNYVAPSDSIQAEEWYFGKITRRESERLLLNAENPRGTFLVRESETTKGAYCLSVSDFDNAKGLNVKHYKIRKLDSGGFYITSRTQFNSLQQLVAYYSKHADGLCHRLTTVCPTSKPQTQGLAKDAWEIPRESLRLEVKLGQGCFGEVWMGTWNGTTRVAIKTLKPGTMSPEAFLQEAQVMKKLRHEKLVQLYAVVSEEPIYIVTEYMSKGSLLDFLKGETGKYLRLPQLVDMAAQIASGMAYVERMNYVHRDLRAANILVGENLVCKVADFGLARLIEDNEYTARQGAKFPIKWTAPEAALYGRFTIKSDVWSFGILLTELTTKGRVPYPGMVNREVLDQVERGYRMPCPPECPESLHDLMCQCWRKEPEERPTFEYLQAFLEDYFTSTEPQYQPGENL

Compound	inhibition at 1 µM (c-Src tyrosine kinase) [%]	inhibition at 1 µM (Hck tyrosine kinase) [%]	inhibition at 1 µM (Fgr tyrosine kinase) [%]	inhibition at 1 µM (Lyn tyrosine kinase) [%]	inhibition at 1 µM (DDR1 tyrosine kinase) [%]	inhibition at 1 µM (DDR2 tyrosine kinase) [%]	inhibition at 10 µM [1, 5] [%]	inhibition at 10 µM ([2]; 10 μM compound, LPS, 24 hours) [%]	inhibition at 0.5 µM [3] [%]	inhibition at 0.5 µM (mouse skin fibroblast) [%]	Inhibition (%) of increase of ear thickness [4] [%]	inhibition at 10 µM ([1]; 6 h) [%]	inhibition at 10 µM ([2]; 24 h) [%]
CN1CCN(Cc2cccc(-c3cc4ncnc(Nc5cccc(O)c5)c4s3)c2)CC1.Cl [LCB 03-0061, 3-(6-(3-((4-methylpiperazin-1-yl)methyl)phenyl)thieno[3,2-d]pyrimidin-4-ylamino)phenol]	> 80	> 80	> 80	> 80	> 80	> 80	91	92	68	44	55	–	–
Cl.Oc1cccc(Nc2ncnc3cc(-c4cccc(CN5CCCC5)c4)sc23)c1 [LCB 03-0062, 3-(6-(3-(pyrrolidin-1-ylmethyl)phenyl)thieno[3,2-d]pyrimidin-4-ylamino)phenol]	> 80	> 80	> 80	> 80	> 80	> 80	82	93	64	41	57	–	–
CCN(CC)Cc1cccc(-c2cc3ncnc(Nc4cccc(O)c4)c3s2)c1.Cl [LCB 03-0063, 3-(6-(3-((diethylamino)methyl)phenyl)thieno[3,2-d]pyrimidin-4-ylamino)phenol]	> 80	> 80	> 80	> 80	> 80	> 80	85	89	61	36	51	–	–
Cl.Oc1cccc(Nc2ncnc3cc(-c4cccc(CN5CCNCC5)c4)sc23)c1 [LCB 03-0064, 3-(6-(3-(piperazin-1-ylmethyl)phenyl)thieno[3,2-d]pyrimidin-4-ylamino)phenol]	> 80	> 80	> 80	> 80	> 80	> 80	73	79	66	41	63	–	–
CCNCc1cccc(-c2cc3ncnc(Nc4cccc(O)c4)c3s2)c1.Cl [LCB 03-0065, 3-(6-(3-((ethylamino)methyl)phenyl)thieno[3,2-d]pyrimidin-4-ylamino)phenol]	> 80	> 80	> 80	> 80	> 70	> 70	79	84	58	35	52	–	–
Cl.Oc1cccc(Nc2ncnc3cc(-c4cccc(CN5CCOCC5)c4)sc23)c1 [LCB 03-0066, 3-(6-(3-(morpholinomethyl)phenyl)thieno[3,2-d]pyrimidin-4-ylamino)phenol]	> 80	> 80	> 80	> 80	> 80	> 80	93	87	75	54	67	–	–
CC(C)CNCc1cccc(-c2cc3ncnc(Nc4cccc(O)c4)c3s2)c1.Cl [LCB 03-0067, 3-(6-(3-((isobutylamino)methyl)phenyl)thieno[3,2-d]pyrimidin-4-ylamino)phenol]	> 80	> 80	> 80	> 80	> 80	> 80	83	85	49	33	54	–	–
Cl.OCCNCc1ccc(-c2cc3ncnc(Nc4cccc(O)c4)c3s2)cc1 [LCB 03-0070, 3-(6-(4-((2-hydroxyethylamino)methyl)phenyl)thieno[3,2-d]pyrimidin-4-ylamino)phenol]	> 80	> 80	> 80	> 80	> 80	> 80	77	90	42	30	55	–	–
Cl.Oc1cccc(Nc2ncnc3cc(-c4cccc(CCN5CCCC5)c4)sc23)c1 [LCB 03-0076, 3-(6-(3-(2-(pyrrolidin-1-yl)ethyl)phenyl)thieno[3,2-d]pyrimidin-4-ylamino)phenol]	> 80	> 80	> 80	> 80	> 80	> 80	90	91	57	45	54	–	–
Oc1cccc(Nc2ncnc3cc(-c4cccc(CCN5CCNCC5)c4)sc23)c1 [LCB 03-0079, 3-(6-(3-(2-(piperazin-1-yl)ethyl)phenyl)thieno[3,2-d]pyrimidin-4-ylamino)phenol]	> 80	> 80	> 80	> 80	> 80	> 80	67	74	61	41	51	–	–
Oc1cccc(Nc2ccnc3cc(-c4ccc(CN5CCCC5)cc4)sc23)c1 [LCB 03-0080, 3-(2-(4-(pyrrolidin-1-ylmethyl)phenyl)thieno[3,2-b]pyridin-7-ylamino)phenol]	> 60	> 60	> 60	> 60	> 80	> 80	–	–	62	41	53	59	78
Oc1cccc(Nc2ccnc3cc(-c4ccc(CN5CCOCC5)cc4)sc23)c1 [LCB 03-0083, 3-(2-(4-(morpholinomethyl)phenyl)thieno[3,2-b]pyridin-7-ylamino)phenol]	> 60	> 60	> 60	> 60	> 80	> 80	62	71	55	33	47	–	–
CN1CCN(Cc2ccc(-c3cc4nccc(Nc5cccc(O)c5)c4s3)cc2)CC1 [LCB 03-0084, 3-(2-(4-((4-methylpiperazin-1-yl)methyl)phenyl)thieno[3,2-b]pyridin-7-ylamino)phenol]	> 60	> 60	> 60	> 60	> 80	> 80	64	85	57	36	49	–	–
